Assay results reported in patent US20250243427A1, “PRECURSORS OF PHENOLIC FRAGRANT COMPOUNDS” (GIVAUDAN SA, priority 2021, published 2025).

Test: Odor description on paper blotter
Conditions: 1% solution in EtOH on paper blotter, 24 h

Row | Molecule | Odor description
1 | 3-ethoxy-4-((4-methylhepta-3,6-dien-1-yl)oxy)benzaldehyde and 3-ethoxy-4-((4-methylhepta-3,5-dien-1-yl)oxy)benzaldehyde [Example 29] | powdery (vanilla) sweet (sugary)
2 | CC/C=C/CCOc1ccc(C=O)cc1OCC [Example 2, (E)-3-ethoxy-4-(hex-3-en-1-yloxy)benzaldehyde] | powdery (vanilla, creamy) slightly fruity (raspberry, strawberry)
3 | CC/C=C\CC(C)Oc1ccc(C=O)cc1OCC (stereo not drawn) [Example 4, (Z)-3-ethoxy-4-(hept-4-en-2-yloxy)benzaldehyde] | sweet (brown sugar) powdery (vanillin, chocolate, ice cream)
4 | CC/C=C\CC(C)Oc1ccc(CCC(C)=O)cc1 (stereo not drawn) [Example 5, (Z)-4-(4-(hept-4-en-2-yloxy)phenyl)butan-2-one] | raspberry (fruity, ripe, fresh)
5 | CC/C=C/CCOc1ccc(CCC(C)=O)cc1 [Example 7, (E)-4-(4-(hex-3-en-1-yloxy)phenyl)butan-2-one] | raspberry
6 | C=CCCOc1ccc(C=O)cc1OCC [Example 12, 4-(but-3-en-1-yloxy)-3-ethoxybenzaldehyde] | powdery (vanilla, creamy, dough)
7 | C=CCCOc1ccc(CC=C)cc1OC [Example 13, 4-allyl-1-(but-3-en-1-yloxy)-2-methoxybenzene] | slightly spicy (iso eugenol) fruity (berry)
8 | C=CCCOc1cc(C)c(C(=O)OC)c(O)c1C [Example 14, methyl 4-(but-3-en-1-yloxy)-2-hydroxy-3,6-dimethylbenzoate] | slightly mossy
9 | C=C(C)CCOc1ccc(C=O)cc1OCC [Example 15, 3-ethoxy-4-((3-methylbut-3-en-1-yl)oxy)benzaldehyde] | mild, powdery, spicy
10 | C=C(C)CCOc1ccc(CCC(C)=O)cc1 [Example 16, 4-(4-((3-methylbut-3-en-1-yl)oxy)phenyl)butan-2-one] | fruity (raspberry) sweet
11 | CCCC/C=C\CCOc1ccc(C=O)cc1OCC [Example 17, (Z)-3-ethoxy-4-(oct-3-en-1-yloxy)benzaldehyde] | vanilla (powdery, spicy, creamy)
12 | C=CCC(CCC)Oc1ccc(C=O)cc1OCC (stereo not drawn) [Example 19, 3-ethoxy-4-(hept-1-en-4-yloxy)benzaldehyde] | powdery (dry, vanilla) fruity (metallic)
13 | C=CCC(CCC)Oc1ccc(CCC(C)=O)cc1 (stereo not drawn) [Example 21, 4-(4-(hept-1-en-4-yloxy)phenyl)butan-2-one] | raspberry
14 | C=CCC(CC=C)Oc1ccc(C=O)cc1OCC [Example 22, 3-ethoxy-4-(hepta-1,6-dien-4-yloxy)benzaldehyde] | powdery (creamy, vanilla)
15 | C=CCC(CC=C)Oc1ccc(CCC(C)=O)cc1 [Example 23, 4-(4-(hepta-1,6-dien-4-yloxy)phenyl)butan-2-one] | fruity (raspberry)
16 | C=CCC(C=C(C)C)Oc1ccc(C=O)cc1OCC (stereo not drawn) [Example 24, 3-ethoxy-4-((6-methylhepta-1,5-dien-4-yl)oxy)benzaldehyde] | powdery (creamy, vanilla)
17 | C=CCC(CC)Oc1ccc(CCC(C)=O)cc1 (stereo not drawn) [Example 25, 4-(4-(hex-5-en-3-yloxy)phenyl)butan-2-one] | sweet (icing sugar cristal) raspberry
18 | C=CCC(C=CC)Oc1ccc(CCC(C)=O)cc1 (stereo not drawn) [Example 26, 4-(4-(hepta-1,5-dien-4-yloxy)phenyl)butan-2-one] | sweet (icing sugar cristal) raspberry
19 | C=CCC(C=C(C)C)Oc1ccc(CCC(C)=O)cc1 (stereo not drawn) [Example 27, 4-(4-((6-methylhepta-1,5-dien-4-yl)oxy)phenyl)butan-2-one] | fruity (powdery, sweet, raspberry)
20 | C=CCC(C)(C)Oc1ccc(C=O)cc1OCC [Example 28, 3-ethoxy-4-((2-methylpent-4-en-2-yl)oxy)benzaldehyde] | powdery (vanilla)
21 | CCC=CCCOc1cc(C)ccc1C(C)C [Example 30, 2-(hex-3-en-1-yloxy)-1-isopropyl-4-methylbenzene] | aromatic, thymol, menthol
22 | CCOc1cc(C=O)ccc1OCCC=CCC(C)C [Example 31, 3-ethoxy-4-((6-methylhept-3-en-1-yl)oxy)benzaldehyde] | powdery, vanilla, green, hazelnut, chocolate
23 | CCOc1cc(C=O)ccc1OCC/C=C/C(C)C [Example 32, (E)-3-ethoxy-4-((5-methylhex-3-en-1-yl)oxy)benzaldehyde] | powdery, vanilla, green, hazelnut, chocolate

Row | Molecule | Odor description
24 | CCC(C)=CCCOc1ccc(CCC(C)=O)cc1 [Example 36, 4-(4-((4-methylhex-3-en-1-yl)oxy)phenyl)butan-2-one] | fruity, raspberry, sweet, powdery
25 | COc1cc(C=O)ccc1OCCC=C(C)C [Example 37, 3-methoxy-4-((4-methylpent-3-en-1-yl)oxy)benzaldehyde] | powdery, vanilla, creamy
26 | CCCC(C)=CCCOc1ccc(C=O)cc1OC [Example 38, 3-methoxy-4-((4-methylhept-3-en-1-yl)oxy)benzaldehyde] | powdery, vanilla, chocolate
27 | CC/C=C\CCOc1ccccc1OCC [Example 39, (Z)-1-ethoxy-2-(hex-3-en-1-yloxy)benzene] | medicinal, phenolic, vanilla
28 | CCOc1cc(C=O)ccc1OCCC=C(C)CC [Example 40, 3-ethoxy-4-((4-methylhex-3-en-1-yl)oxy)benzaldehyde] | powdery, vanilla, creamy, chocolate, slightly butyric
29 | CC/C=C\CCOc1cc(C)cc(OC)c1 [Example 41, (Z)-1-(hex-3-en-1-yloxy)-3-methoxy-5-methylbenzene] | green, bell pepper
30 | CCc1ccc(OCCC=C(C)C)cc1 [Example 42, 1-ethyl-4-((4-methylpent-3-en-1-yl)oxy)benzene] | animalic, leathery, phenolic, paracresol
31 | COc1cc(C)cc(OCCC=C(C)C)c1 [Example 43, 1-methoxy-3-methyl-5-((4-methylpent-3-en-1-yl)oxy)benzene] | animalic, leathery, phenolic, paracresol, green, hay, rooty
32 | CC(C)=CCCOc1ccc(C)cc1 [Example 44, 1-methyl-4-((4-methylpent-3-en-1-yl)oxy)benzene] | animalic, leathery, phenolic, paracresol
33 | CCCc1cccc(OCCC=C(C)C)c1 [Example 45, 1-((4-methylpent-3-en-1-yl)oxy)-3-propylbenzene] | animalic, leathery, phenolic, paracresol, green, hay, rooty
34 | CC/C=C\CCOc1ccccc1C(=O)CC [Example 46, (Z)-1-(2-(hex-3-en-1-yloxy)phenyl)propan-1-one] | green, wintergreen
35 | CC/C=C\CCOc1ccc(C=NOC)cc1OCC [Example 47, 3-ethoxy-4-(((Z)-hex-3-en-1-yl)oxy)benzaldehyde O-methyl oxime] | vanilla (sweet, gourmand, carnation floral, chestnut cream)
36 | CC/C=C\CCOc1ccc(COCC)cc1OCC [Example 48, (Z)-2-ethoxy-4-(ethoxymethyl)-1-(hex-3-en-1-yloxy)benzene] | spicy (eugenol, smokey), powdery (vanilla)
37 | CC/C=C\CCOc1ccc(COC)cc1OCC [Example 49, (Z)-2-ethoxy-1-(hex-3-en-1-yloxy)-4-(methoxymethyl)benzene] | spicy (eugenol, smokey), powdery (vanilla)
38 | CC/C=C\CCOc1ccc(COC(C)C)cc1OCC [Example 50, (Z)-2-ethoxy-1-(hex-3-en-1-yloxy)-4-(isopropoxymethyl)benzene] | spicy (eugenol, smokey), powdery (vanilla), green
39 | CCOc1cc(C=O)ccc1OC1CC=CCC1 (stereo not drawn) [Example 51, 4-(cyclohex-3-en-1-yloxy)-3-ethoxybenzaldehyde] | powdery (vanilla)
40 | CCOc1cc(C=O)ccc1OCCC=CCCOc1ccc(C=O)cc1OCC [Example 52, 4,4′-(hex-3-ene-1,6-diylbis(oxy))bis(3-ethoxybenzaldehyde)] | powdery (vanilla)
41 | CCOc1cc(C=O)ccc1OCCC=CC(=O)OC [Example 60, methyl 5-(2-ethoxy-4-formylphenoxy)pent-2-enoate] | sweet powdery gourmand, vanilla, coffee, creamy, vanilla, milky
42 | C=CCC(Oc1ccc(C=O)cc1OCC)C(=O)OCC (stereo not drawn) [Example 61, ethyl 2-(2-ethoxy-4-formylphenoxy)pent-4-enoate] | sweet powdery gourmand (vanilla, coffee) creamy (vanilla, milky)
43 | COC(=O)c1c(C)cc(OCCC=C(C)C)c(C)c1O [Example 62, methyl 2-hydroxy-3,6-dimethyl-4-((4-methylpent-3-en-1-yl)oxy)benzoate] | mossy (evernyl)
44 | CC=CCCOc1cc(C)c(C(=O)OC)c(O)c1C [Example 63, methyl 2-hydroxy-3,6-dimethyl-4-(pent-3-en-1-yloxy)benzoate] | mossy, evernyl, dry powdery
45 | (Z)-2-ethoxy-1-(hex-3-en-1-yloxy)-4-methylbenzene and (Z)-1-ethoxy-2-(hex-3-en-1-yloxy)-4-methylbenzene [Example 35] | spicy, eugenol, clove, phenolic, vanilla, medicinal

Test: Washtest and sensory evaluation of fabric washed with liquid detergent
Conditions: Table 2 (position of double bond); liquid detergent washtest, wet fabric; scale 0 (odorless) to 5 (extremely strong)
Experimental: The wet and line-dried fabric (1 and 4 days) was assessed by a panel of 4-6 experts with regard to odor intensity and quality. The odor intensity was recorded on an intensity scale of 0 (odorless) to 5 (extremely strong).
The odour intensity was recorded on an intensity scale of 0 (odorless) to 5 (extremely strong).
Liquid detergent samples were prepared and used in washtests and subsequent sensory evaluation of the washed and dried fabric as described in Example 45a and c. The odor intensity was recorded on an intensity scale of 0 (odorless) to 5 (extremely strong).

Row | Molecule | odour intensity, wet
46 | C=CCCCOc1ccc(C=O)cc1OCC [Example 53, 3-ethoxy-4-(pent-4-en-1-yloxy)benzaldehyde, reference compound] | 1.5
47 | CCC/C=C/COc1ccc(C=O)cc1OCC [Example 54, (E)-3-ethoxy-4-(hex-2-en-1-yloxy)benzaldehyde, reference compound] | 1.2

Same assay, conditions: Table 2; liquid detergent washtest, dry fabric 1 day; scale 0 to 5

Row | Molecule | odour intensity, 1 day
48 | C=CCCCOc1ccc(C=O)cc1OCC [Example 53, 3-ethoxy-4-(pent-4-en-1-yloxy)benzaldehyde, reference compound] | 1.3
49 | CCC/C=C/COc1ccc(C=O)cc1OCC [Example 54, (E)-3-ethoxy-4-(hex-2-en-1-yloxy)benzaldehyde, reference compound] | 1.8

Same assay, conditions: Table 2; liquid detergent washtest, dry fabric 4 days; scale 0 to 5

Row | Molecule | odour intensity, 4 days
50 | C=CCCCOc1ccc(C=O)cc1OCC [Example 53, 3-ethoxy-4-(pent-4-en-1-yloxy)benzaldehyde, reference compound] | 1.2
51 | CCC/C=C/COc1ccc(C=O)cc1OCC [Example 54, (E)-3-ethoxy-4-(hex-2-en-1-yloxy)benzaldehyde, reference compound] | 1.4
